Source: article PMC6028563, “Probing Substituents in the 1- and 3-Position: Tetrahydropyrazino-Annelated Water-Soluble Xanthine Derivatives as Multi-Target Drugs With Potent Adenosine Receptor Antagonistic Activity” (Frontiers in Chemistry, 2018)
pIC50, pKd, pKi: −log10 of the molar value. Several values for one entry are separate records, joined by “and”; a condition that tells them apart may be missing. Equal entries are not always repeated. Where two headings read alike, the source gives them in different places.

How the values were obtained:
[1] = biological target: T1, human A3 AR (Homo sapiens, UniProt P0DMS8); details: cited from earlier work; for pKi: human (h)
T1 construct: expressed in transfected cells; host or cells: CHO cells
T1 sequence (P0DMS8 1-318): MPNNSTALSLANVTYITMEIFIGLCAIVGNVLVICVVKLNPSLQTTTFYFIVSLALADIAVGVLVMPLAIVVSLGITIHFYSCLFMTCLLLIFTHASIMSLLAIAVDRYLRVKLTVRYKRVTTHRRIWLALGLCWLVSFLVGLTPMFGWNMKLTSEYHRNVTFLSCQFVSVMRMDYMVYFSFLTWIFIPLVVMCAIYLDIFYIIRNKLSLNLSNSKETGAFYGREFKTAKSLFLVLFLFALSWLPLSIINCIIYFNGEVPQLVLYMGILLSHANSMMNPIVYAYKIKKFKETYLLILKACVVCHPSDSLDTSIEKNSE

[2] = biological target: T2, human A1 AR (Homo sapiens, UniProt P30542); details: cited from earlier work
T2 construct: expressed in transfected cells; host or cells: CHO cells
T2 sequence (P30542 1-326): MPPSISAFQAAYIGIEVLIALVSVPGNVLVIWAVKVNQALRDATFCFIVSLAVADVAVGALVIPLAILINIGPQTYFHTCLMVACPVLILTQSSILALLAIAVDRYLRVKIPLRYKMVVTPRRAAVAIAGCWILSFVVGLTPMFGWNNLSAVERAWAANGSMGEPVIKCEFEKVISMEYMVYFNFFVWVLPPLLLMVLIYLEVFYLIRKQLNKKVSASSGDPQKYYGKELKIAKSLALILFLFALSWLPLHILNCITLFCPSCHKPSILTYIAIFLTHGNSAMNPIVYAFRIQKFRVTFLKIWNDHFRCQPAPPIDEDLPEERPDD

[3] = biological target: T3, human A2A AR (Homo sapiens, UniProt P29274); details: cited from earlier work; for pKi: human (h), 2007, 2013
T3 construct: expressed in transfected cells; host or cells: CHO cells

[4] = biological target: T4, recombinant human MAO-B (Homo sapiens, UniProt P27338); details: human (h), 2013, cited from earlier work
T4 construct: purchased Sigma-Aldrich M7441; host or cells: baculovirus-infected insect cells
T4 sequence (P27338 1-520): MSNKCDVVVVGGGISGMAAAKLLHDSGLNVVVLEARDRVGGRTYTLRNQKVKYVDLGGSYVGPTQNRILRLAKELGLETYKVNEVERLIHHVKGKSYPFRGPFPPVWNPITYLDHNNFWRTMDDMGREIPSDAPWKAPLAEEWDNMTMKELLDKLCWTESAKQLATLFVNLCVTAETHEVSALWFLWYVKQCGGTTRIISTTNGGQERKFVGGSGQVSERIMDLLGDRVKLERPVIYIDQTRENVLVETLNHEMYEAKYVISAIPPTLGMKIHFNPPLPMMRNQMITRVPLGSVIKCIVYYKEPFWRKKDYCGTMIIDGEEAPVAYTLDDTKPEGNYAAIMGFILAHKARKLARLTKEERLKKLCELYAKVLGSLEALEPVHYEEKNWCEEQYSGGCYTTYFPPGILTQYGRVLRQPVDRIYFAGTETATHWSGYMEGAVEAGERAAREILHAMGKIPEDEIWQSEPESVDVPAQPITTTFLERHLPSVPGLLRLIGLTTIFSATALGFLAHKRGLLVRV

[5] = biological target: T5, rat A2A AR (Rattus norvegicus, UniProt P30543); details: cited from earlier work
T5 construct: A2A ARs of rat brain striatal membrane preparations; from tissue; host or cells: rat brain striatum membranes

[6] = biological target: T6, recombinant human MAO-A (Homo sapiens, UniProt P21397); experiment: Monoamine oxidase assay (Amplex Red), MAO-A; type: biochemical
T6 construct: purchased Sigma-Aldrich M7316; host or cells: baculovirus-infected insect cells
T6 sequence (P21397 1-527): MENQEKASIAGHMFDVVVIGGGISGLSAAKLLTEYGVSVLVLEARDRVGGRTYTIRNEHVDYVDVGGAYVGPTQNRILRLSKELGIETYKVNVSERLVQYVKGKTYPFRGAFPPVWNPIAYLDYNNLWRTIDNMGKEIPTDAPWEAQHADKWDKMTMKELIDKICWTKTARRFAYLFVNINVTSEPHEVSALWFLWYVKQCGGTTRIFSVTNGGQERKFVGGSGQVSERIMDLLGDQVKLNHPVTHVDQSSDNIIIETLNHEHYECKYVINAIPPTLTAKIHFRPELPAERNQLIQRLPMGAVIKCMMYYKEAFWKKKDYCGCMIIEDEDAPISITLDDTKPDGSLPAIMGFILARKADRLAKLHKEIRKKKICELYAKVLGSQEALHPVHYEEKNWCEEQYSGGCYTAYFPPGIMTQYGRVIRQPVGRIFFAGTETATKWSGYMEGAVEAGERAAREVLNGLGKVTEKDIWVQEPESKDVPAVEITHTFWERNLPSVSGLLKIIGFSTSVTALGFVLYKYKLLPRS
Outline: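 Recombinant human MAO-A and MAO-B, expressed in baculovirus-infected insect cells, were assayed by Amplex Red fluorometric detection. Rat MAO-B inhibition used mitochondria-enriched fractions from male Sprague Dawley rat liver.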

[7] = biological target: T7, human A2B AR (Homo sapiens, UniProt P29275); details: cited from earlier work
T7 construct: expressed in transfected cells; host or cells: CHO cells
T7 sequence (P29275 1-332): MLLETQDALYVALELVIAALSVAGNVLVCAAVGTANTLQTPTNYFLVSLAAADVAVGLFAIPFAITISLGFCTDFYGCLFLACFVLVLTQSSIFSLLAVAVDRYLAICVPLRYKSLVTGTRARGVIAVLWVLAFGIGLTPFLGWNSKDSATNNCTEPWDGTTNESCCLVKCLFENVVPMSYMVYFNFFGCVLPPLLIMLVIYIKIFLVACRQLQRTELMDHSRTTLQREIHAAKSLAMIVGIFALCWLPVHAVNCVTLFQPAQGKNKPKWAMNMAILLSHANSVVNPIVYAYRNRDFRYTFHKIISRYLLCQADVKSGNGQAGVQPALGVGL

[8] = tested on: haloperidol-induced catalepsy; design: method as in Wang et al., 2017; Robinson et al., 2015; details: rat; ref Wang et al., 2017; Robinson et al., 2015; cited from earlier work
[9] = tested on: rat MAO-B; design: method as in Brunschweiger et al., 2014, 2016; details: rat (r); Figure 3 and introduction; ref Brunschweiger et al., 2014, 2016; cited from earlier work
[10] = human (h), Figure 3 and introduction, ref Drabczynska et al., 2007, Koch et al., 2013, Brunschweiger et al., 2014, 2016, read-out: A1 (Ki)
[11] = Figure 3 and introduction, ref Drabczynska et al., Koch et al., Brunschweiger et al., 2014, 2016
[12] = Figure 3 and introduction, ref Drabczynska et al., 2007, Koch et al., Brunschweiger et al., 2014, 2016
[13] = radioligand, ref Müller et al., 2000

T3 sequence (P29274 whole entry): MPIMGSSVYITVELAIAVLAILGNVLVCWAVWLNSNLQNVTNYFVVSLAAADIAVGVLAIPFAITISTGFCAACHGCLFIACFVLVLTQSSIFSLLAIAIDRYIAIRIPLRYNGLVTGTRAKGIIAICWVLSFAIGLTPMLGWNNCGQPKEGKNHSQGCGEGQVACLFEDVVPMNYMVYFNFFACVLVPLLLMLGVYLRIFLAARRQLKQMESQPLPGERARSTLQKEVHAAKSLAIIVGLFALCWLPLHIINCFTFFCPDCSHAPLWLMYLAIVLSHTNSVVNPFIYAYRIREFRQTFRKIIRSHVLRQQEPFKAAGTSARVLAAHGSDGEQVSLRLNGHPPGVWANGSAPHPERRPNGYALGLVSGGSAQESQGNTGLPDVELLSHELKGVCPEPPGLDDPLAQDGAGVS
T5 sequence (P30543 whole entry): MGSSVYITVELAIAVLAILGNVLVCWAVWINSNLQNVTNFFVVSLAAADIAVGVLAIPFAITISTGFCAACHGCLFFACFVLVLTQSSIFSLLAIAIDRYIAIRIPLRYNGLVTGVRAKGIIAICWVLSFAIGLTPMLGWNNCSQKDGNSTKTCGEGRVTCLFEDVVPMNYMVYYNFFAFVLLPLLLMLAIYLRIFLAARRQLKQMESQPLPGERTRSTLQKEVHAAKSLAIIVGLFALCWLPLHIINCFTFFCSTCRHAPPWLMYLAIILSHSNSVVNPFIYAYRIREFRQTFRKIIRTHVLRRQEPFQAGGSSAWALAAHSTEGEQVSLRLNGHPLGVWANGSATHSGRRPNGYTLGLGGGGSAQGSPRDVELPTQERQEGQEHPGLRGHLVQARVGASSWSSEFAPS

For “[^3H](R)-8-ethyl-4-methyl-2-(phenyl)1,4,7,8-tetrahydro-5H-imidazo[2,1-i]purin-5-one [[^3H]PSB-11]”, the pKd ([1]; radioligand, ref Müller et al., 2002) is given as 8.31.

In the case of `Cn1c(=O)c2c(nc3n2CCN(Cc2cc(F)c(Cl)cc2Cl)C3)n(C)c1=O` [Compound 10a, 8-(2,4-dichloro-5-fluorobenzyl)-1,3-dimethyl-6,7,8,9-tetrahydropyrazino[2,1-f]purine-2,4(1H,3H)-dione], the pKi [2, 10] is given as 6.66, the pKi [3, 11] is given as 6.57 and the pIC50 [4, 12] is given as 6.29.

For `C#CCn1c(=O)c2c(nc(C=Cc3cccc(OC)c3)n2C)n(CCCO)c1=O` [[^3H]MSX-2, [^3H]3-(3-hydroxypropyl)-7-methyl-8-(m-methoxystyryl)-1-propargylxanthine], the pKd [3, 13] is given as 8.14 and the pKd [5, 13] is given as 8.10.

In the case of `Cn1c(=O)c2c(nc(C=Cc3cccc(Cl)c3)n2C)n(C)c1=O` [CSC, 8-m-Chlorostyrylcaffeine], the “% inhibition of radioligand binding at indicated concentration, A1 vs. [^3H]CCPA” value ([2]; at 10,000 nM, ref Müller and Jacobson (2011), Brunschweiger et al. (2014)) is given as 14%, the pKi ([2]; read-out: Ki, A1 vs. [^3H]CCPA, standard antagonists, ref Müller and Jacobson (2011), Brunschweiger et al. (2014)) is given as less than 5.00 and the inhibition at 10 µM ([6]; at 10,000 nM, read-out: % inhibition at indicated concentration, Human MAO-A) is given as 23%. For the same compound, the pIC50 ([6]; n = 3, read-out: IC50 ± SEM, Human MAO-A) was less than 5.00 and the pKi ([1]; standard antagonists, ref Müller and Jacobson (2011), Brunschweiger et al. (2014), read-out: Ki, A3 vs. [^3H]PSB-11) was less than 5.00.

For `COc1ccccc1CN1CCCn2c1nc1c2c(=O)n(C)c(=O)n1C` [Compound 9b], the pKi [2, 10] is given as 6.22, the pKi [3, 11] is given as 6.38 and the pIC50 [4, 12] is given as 5.74.

For “[^3H]8-(4-[4-(4-chlorophenyl)piperazine-1-sulfonyl]phenyl)-1-propyl-2,3,6,7-tetrahydro-1H-purine-2,6-Dione [[^3H]PSB-603]”, the pKd ([7]; radioligand, ref Borrmann et al., 2009) is listed as 9.39.

In the case of `Cn1c(=O)c2c(nc(-c3ccc(C(=O)Nc4ccccc4)cc3)n2C)n(C)c1=O` [PX-D-P6], the pKi ([3]; Figure 2 and introduction, ref Chen et al., 2002, Wang et al., 2017, Stössel et al., Mihara et al.) is listed as 6.48, the “effect in haloperidol-induced catalepsy model” value [8] is listed as “anti-cataleptic effects” and the pIC50 ([4]; Figure 2 and introduction, ref Chen et al., 2002, Pretorius et al., 2008, Wang et al., 2017, Stössel et al.) is listed as 6.59 and 6.54.

In the case of `Cn1c(=O)c2c(nc3n2CCN(Cc2ccc(Cl)c(Cl)c2)C3)n(C)c1=O` [Compound 10b, 8-(3,4-Dichlorobenzyl)-1,3-dimethyl-6,7,8,9-tetrahydropyrazino[2,1-f]purine-2,4(1H,3H)-dione], the pIC50 [9] is given as 6.59 and the pKi ([5]; rat (r), Figure 3 and introduction, ref Brunschweiger et al., 2014, 2016) is given as 6.49.

For `O=C(CCCc1ccccc1)Nc1nc2ccccc2c(=O)s1` [Compound 6, N-(4-oxo-4H-3,1-benzothiazin-2-yl)-4-phenylbutanamide], the pKi ([7]; human (h), Figure 2, ref Chen et al., 2002, Stössel et al., 2013) is listed as less than 6.00 and the pKi ([1]; Figure 2, ref Chen et al., 2002, Stössel et al., 2013, Mihara et al., 2007, read-out: A3 (Ki)) is listed as less than 6.00.

For `Cc1ccc(-c2cc(-c3cccc(C(=O)N4CCCCC4)c3)nc(N)n2)o1` [Compound 8], the “effect in haloperidol-induced catalepsy model” value [8] is given as “in vivo efficacy”.
